Key:
[1] = test system: NPY-induced feeding behavior in satiated rats; assay: NPY-induced food intake in satiated rats; assay type: in vivo, rat; conditions: compound 30 mg/kg i.p., then 300 pmole NPY i.c.v., 4 hours after NPY, in g (unit assumed)
Protocol: For these determinations food intake maybe measured in normal satiated rats after intracerebroventricular application (i.c.v.) of NPY in the presence or absence of the test compound. Male Sprague Dawley rats ciba-Geigy AG, Sisseln, Switzerland weighing between 180 g and 220 g are used for all experiments. The rats are individually housed in stainless steel cages and maintained on an 11:13 h light-dark cycle (lights off at 18:00 h) at a controlled temperature of 21-23° C. at all times. Water and food (NAFAG lab chow pellets, NAFAG, Gossau, Switzerland) are available ad libidum.
Rats under pentobarbital anesthesia are stereotaxically implanted with a stainless steel guide cannula targeted at the right lateral ventricle. Stereotaxic coordinates, with the incisor bar set −2.0 mm below interaural line, are: −0.8 mm anterior and +1.3 mm lateral to bregma. The guide cannula is placed on the dura. […]
Food intake may be measured by placing preweighed pellets into the cages at the time of NPY injection. […] The food intake of animals treated with test compound may be calculated as a percentage of the food intake of control animals, i.e., animals treated with vehicle. Alternatively, food intake for a group of animals subjected to the same experimental condition may be expressed as the mean ±S.E.M. Statistical analysis is performed by analysis of variance using the Student-Newman-Keuls test. […]

[2] = biological target: T1, human histamine H2 receptor (Homo sapiens, UniProt P25021); assay: Binding to human histamine H2 receptor ([3H]tiotidine); conditions: cloned human receptor
T1 construct: expressed in transfected cells; host or cells: COS-7 cells, transient (DEAE-dextran), plasmid pcEXV-H2 (ATCC 75345)
Protocol: The binding of the histamine H2 antagonist [^3H]tiotidine (5 nM, specific activity: 70 Ci/mM) was done in a final volume of 0.25 ml and incubated at room temperature for 60 min. Nonspecific binding was determined in the presence of 10 μM histamine.

human α2C receptor = biological target: T2, human α2C receptor (Homo sapiens, UniProt P18825); assay: Binding to cloned human α2C adrenergic receptor ([3H]rauwolscine)
T2 construct: expressed in transfected cells
T2 sequence (P18825 whole entry): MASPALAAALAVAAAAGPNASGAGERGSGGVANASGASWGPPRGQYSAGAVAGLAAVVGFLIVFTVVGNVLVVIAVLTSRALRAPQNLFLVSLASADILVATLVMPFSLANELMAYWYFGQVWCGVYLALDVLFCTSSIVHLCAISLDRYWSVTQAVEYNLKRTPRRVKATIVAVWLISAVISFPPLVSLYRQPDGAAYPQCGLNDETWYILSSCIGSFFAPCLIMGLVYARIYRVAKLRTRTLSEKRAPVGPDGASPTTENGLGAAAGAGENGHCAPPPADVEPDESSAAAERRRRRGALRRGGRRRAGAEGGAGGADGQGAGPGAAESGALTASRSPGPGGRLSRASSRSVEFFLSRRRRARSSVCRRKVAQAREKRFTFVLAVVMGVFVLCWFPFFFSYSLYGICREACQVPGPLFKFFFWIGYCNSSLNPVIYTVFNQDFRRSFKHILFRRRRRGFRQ
Protocol: α2 Human Adrenergic Receptors: To determine the binding of compounds to human α2 receptors, LM(tk−) cell lines stably transfected with the genes encoding the α2A, α2B, and α2C receptors were used. […] Cell lysates were prepared as described below (see Radioligand Dinding to Membrane Suspensions), and suspended in 25 mM glycylglycine buffer (pH 7.6 at room temperature). Equilibrium competition binding assay were performed using [^3H]rauwolscine (0.5 nM), and nonspecific binding was determined by incubation with 10 μM phentolamine.

T1 sequence (P25021 whole entry): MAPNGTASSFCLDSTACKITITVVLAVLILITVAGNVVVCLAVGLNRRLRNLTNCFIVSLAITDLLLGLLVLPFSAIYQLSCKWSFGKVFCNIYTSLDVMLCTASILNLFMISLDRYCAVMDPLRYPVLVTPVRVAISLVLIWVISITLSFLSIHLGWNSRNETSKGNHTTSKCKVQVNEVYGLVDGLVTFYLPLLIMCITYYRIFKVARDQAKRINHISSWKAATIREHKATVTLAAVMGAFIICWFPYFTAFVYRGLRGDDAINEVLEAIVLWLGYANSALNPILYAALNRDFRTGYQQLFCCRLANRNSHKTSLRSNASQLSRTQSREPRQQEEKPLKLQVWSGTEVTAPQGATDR

Structure (SMILES) | NPY-induced cumulative food intake (NPY + compound), mean ± S.E.M. [1] | Receptor (pKi) H2 [2] | Receptor (pKi) α2c (human α2C receptor)
Cl.O=S(=O)(NCC1CCC(CNCC2CCc3ccccc3C2)CC1)c1cccc2ccccc12 (stereo not drawn) [Example 32] | 1.5 ± 0.6 |  | 
Cl.O=[N+]([O-])c1ccccc1S(=O)(=O)NCC1CCC(CNCC2CCc3ccccc3C2)CC1 (stereo not drawn) [Example 36] |  | 5.85 | 7.39

Source: US6734182B2, “Aryl sulfonamides and sulfamide derivatives and uses thereof” (Synaptic Pharmaceutical Corporation, priority 1995, dated 2004)
